Laboratory results published in ChEMBL document CHEMBL1156106 (J Med Chem, 2009).
pIC50, pKi: −log10 of the molar value.

Tests used:
[1] = test system: Rattus norvegicus; assay: Effect on behavioural activity in rat assessed as cocaine-induced lever response at 10 mg/kg, ip pretreated with cocaine for 15 mins by drug-discrimination studies; type: functional; details: route intraperitoneal
[2] = test system: Rattus norvegicus; assay: Effect on behavioural activity in rat assessed as cocaine-induced lever response at 25 mg/kg, ip pretreated with cocaine for 15 mins by drug-discrimination studies; type: functional; details: route intraperitoneal
[3] = test system: Rattus norvegicus; assay: Effect on behavioural activity in rat assessed as cocaine-induced lever response at 5 mg/kg, ip pretreated with cocaine for 15 mins by drug-discrimination studies; type: functional; details: route intraperitoneal
[4] = test system: Rattus norvegicus; assay: Effect on behavioural activity in rat assessed as cocaine-induced lever response at 1 mg/kg, po pretreated with cocaine for 180 mins by drug-discrimination studies; type: functional
[5] = target: T1, Sodium-dependent serotonin transporter (Homo sapiens, UniProt P31645); assay: biochemical; type: cell-based, HEK293
T1 sequence (P31645 whole entry): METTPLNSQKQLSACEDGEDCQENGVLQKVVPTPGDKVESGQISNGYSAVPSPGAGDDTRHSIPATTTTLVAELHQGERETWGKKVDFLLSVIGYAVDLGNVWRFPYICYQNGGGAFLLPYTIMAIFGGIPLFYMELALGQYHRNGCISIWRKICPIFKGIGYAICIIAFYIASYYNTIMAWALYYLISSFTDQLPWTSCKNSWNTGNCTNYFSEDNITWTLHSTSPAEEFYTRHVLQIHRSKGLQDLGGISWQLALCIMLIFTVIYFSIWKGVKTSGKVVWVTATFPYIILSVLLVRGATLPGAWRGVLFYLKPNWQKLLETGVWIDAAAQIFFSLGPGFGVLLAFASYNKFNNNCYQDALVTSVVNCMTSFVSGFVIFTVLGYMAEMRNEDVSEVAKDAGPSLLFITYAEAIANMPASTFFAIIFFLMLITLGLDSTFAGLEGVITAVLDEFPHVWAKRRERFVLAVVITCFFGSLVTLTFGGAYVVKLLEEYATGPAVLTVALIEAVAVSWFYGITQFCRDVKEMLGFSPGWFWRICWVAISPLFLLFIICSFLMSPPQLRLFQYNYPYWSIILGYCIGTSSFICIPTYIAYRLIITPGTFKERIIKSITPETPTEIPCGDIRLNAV

[6] = target: T2, Sodium-dependent noradrenaline transporter (Homo sapiens, UniProt P23975); assay: Displacement of [125I]RTI55 from cloned human NET expressed in HEK293 cells; type: cell-based
T2 sequence (P23975 whole entry): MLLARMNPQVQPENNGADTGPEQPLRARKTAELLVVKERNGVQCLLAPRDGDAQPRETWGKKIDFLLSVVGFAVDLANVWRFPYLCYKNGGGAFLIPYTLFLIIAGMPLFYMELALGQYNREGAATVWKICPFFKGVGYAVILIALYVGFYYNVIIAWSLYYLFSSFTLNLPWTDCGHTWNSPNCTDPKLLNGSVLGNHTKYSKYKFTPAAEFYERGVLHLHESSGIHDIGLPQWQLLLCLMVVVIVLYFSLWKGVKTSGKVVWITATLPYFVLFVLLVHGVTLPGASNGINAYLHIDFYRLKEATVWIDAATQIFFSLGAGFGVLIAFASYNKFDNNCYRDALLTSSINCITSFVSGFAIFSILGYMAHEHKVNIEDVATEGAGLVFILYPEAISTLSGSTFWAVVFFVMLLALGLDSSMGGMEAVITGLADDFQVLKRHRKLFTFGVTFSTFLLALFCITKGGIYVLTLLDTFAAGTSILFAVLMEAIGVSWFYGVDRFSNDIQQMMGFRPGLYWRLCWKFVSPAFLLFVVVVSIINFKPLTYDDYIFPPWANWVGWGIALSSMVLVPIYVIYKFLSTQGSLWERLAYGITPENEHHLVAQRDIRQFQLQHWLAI

[7] = test system: Rattus norvegicus; assay: Effect on behavioural activity in rat assessed as cocaine-induced lever response at 1 mg/kg, po pretreated with cocaine for 41 mins by drug-discrimination studies; type: functional
[8] = test system: Rattus norvegicus; assay: Effect on behavioural activity in rat assessed as cocaine-induced lever response at 1 mg/kg, po pretreated with cocaine for 360 mins by drug-discrimination studies; type: functional
[9] = test system: Rattus norvegicus; assay: Effect on behavioural activity in rat assessed as cocaine-induced lever response at 1 mg/kg, po pretreated with cocaine for 90 mins by drug-discrimination studies; type: functional
[10] = test system: Rattus norvegicus; assay: Effect on behavioural activity in rat assessed as cocaine-induced lever response at 100 mg/kg, ip pretreated with cocaine for 15 mins by drug-discrimination studies; type: functional; details: route intraperitoneal
[11] = test system: Mus musculus; assay: Antidepressant activity in ip dosed mouse assessed as duration of locomotor activity; type: functional
[12] = test system: Rattus norvegicus; assay: Effect on behavioural activity in ip dosed rat assessed as cocaine-induced lever response pretreated with cocaine by drug-discrimination studies; type: functional
[13] = target: T3, Sodium-dependent dopamine transporter (Homo sapiens, UniProt Q01959); assay: Displacement of [125I]RTI55 from cloned human DAT expressed in HEK293 cells; type: cell-based
T3 sequence (Q01959 whole entry): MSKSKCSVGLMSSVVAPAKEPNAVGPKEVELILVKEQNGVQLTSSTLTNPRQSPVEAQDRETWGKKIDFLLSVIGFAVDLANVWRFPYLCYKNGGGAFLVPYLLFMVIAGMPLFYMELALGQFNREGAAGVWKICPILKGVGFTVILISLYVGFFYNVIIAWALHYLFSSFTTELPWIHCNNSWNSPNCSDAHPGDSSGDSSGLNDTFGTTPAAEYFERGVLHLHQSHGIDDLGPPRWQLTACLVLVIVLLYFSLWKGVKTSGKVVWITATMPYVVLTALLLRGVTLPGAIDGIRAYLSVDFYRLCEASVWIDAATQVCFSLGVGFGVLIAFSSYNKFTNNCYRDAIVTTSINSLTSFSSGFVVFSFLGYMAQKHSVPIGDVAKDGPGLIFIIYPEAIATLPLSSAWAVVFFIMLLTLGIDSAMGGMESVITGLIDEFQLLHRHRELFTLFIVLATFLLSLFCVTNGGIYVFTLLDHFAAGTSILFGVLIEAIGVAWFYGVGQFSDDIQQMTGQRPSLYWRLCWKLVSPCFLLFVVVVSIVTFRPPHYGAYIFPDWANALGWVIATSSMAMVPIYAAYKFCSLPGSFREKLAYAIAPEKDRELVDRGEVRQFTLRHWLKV

[14] = test system: Mus musculus; assay: Antidepressant activity in ip dosed mouse assessed as stimulation of locomotor activity relative to cocaine; type: functional
[15] = test system: Mus musculus; assay: Antidepressant activity in ip dosed mouse assessed as time to reach peak stimulation of locomotor activity; type: functional
[16] = test system: Mus musculus; assay: Antidepressant activity in ip dosed mouse assessed as stimulation of locomotor activity; type: functional
[17] = test system: Rattus norvegicus; assay: Effect on behavioural activity in rat assessed as cocaine-induced lever response at 50 mg/kg, ip pretreated with cocaine for 15 mins by drug-discrimination studies; type: functional; details: route intraperitoneal
[18] = test system: Rattus norvegicus; assay: Effect on behavioural activity in rat assessed as cocaine-induced lever response at 50 mg/kg, po pretreated with cocaine for 360 mins by drug-discrimination studies; type: functional
[19] = test system: Rattus norvegicus; assay: Effect on behavioural activity in rat assessed as cocaine-induced lever response at 10 mg/kg, po pretreated with cocaine for 360 mins by drug-discrimination studies; type: functional
[20] = test system: Rattus norvegicus; assay: Effect on behavioural activity in rat assessed as cocaine-induced lever response at 25 mg/kg, po pretreated with cocaine for 90 mins by drug-discrimination studies; type: functional
[21] = test system: Rattus norvegicus; assay: Effect on behavioural activity in rat assessed as cocaine-induced lever response at 10 mg/kg, po pretreated with cocaine for 45 mins by drug-discrimination studies; type: functional
[22] = test system: Rattus norvegicus; assay: Effect on behavioural activity in rat assessed as cocaine-induced lever response at 10 mg/kg, po pretreated with cocaine for 180 mins by drug-discrimination studies; type: functional
[23] = test system: Rattus norvegicus; assay: Effect on behavioural activity in rat assessed as cocaine-induced lever response at 50 mg/kg, po pretreated with cocaine for 90 mins by drug-discrimination studies; type: functional
[24] = test system: Rattus norvegicus; assay: Effect on behavioural activity in rat assessed as cocaine-induced lever response at 10 mg/kg, po pretreated with cocaine for 90 mins by drug-discrimination studies; type: functional
[25] = test system: Rattus norvegicus; assay: Effect on behavioural activity in rat assessed as cocaine-induced lever response at 5 mg/kg, po pretreated with cocaine for 180 mins by drug-discrimination studies; type: functional
[26] = test system: Rattus norvegicus; assay: Effect on behavioural activity in rat assessed as cocaine-induced lever response at 5 mg/kg, po pretreated with cocaine for 90 mins by drug-discrimination studies; type: functional
[27] = test system: Rattus norvegicus; assay: Effect on behavioural activity in rat assessed as cocaine-induced lever response at 50 mg/kg, po pretreated with cocaine for 45 mins by drug-discrimination studies; type: functional
[28] = test system: Rattus norvegicus; assay: Effect on behavioural activity in rat assessed as cocaine-induced lever response at 5 mg/kg, po pretreated with cocaine for 45 mins by drug-discrimination studies; type: functional
[29] = test system: Rattus norvegicus; assay: Effect on behavioural activity in po dosed rat assessed as cocaine-induced lever response pretreated with cocaine by drug-discrimination studies; type: functional
[30] = test system: Rattus norvegicus; assay: Effect on behavioural activity in rat assessed as cocaine-induced lever response at 25 mg/kg, po pretreated with cocaine for 180 mins by drug-discrimination studies; type: functional
[31] = test system: Rattus norvegicus; assay: Effect on behavioural activity in rat assessed as cocaine-induced lever response at 1 mg/kg, ip pretreated with cocaine for 15 mins by drug-discrimination studies; type: functional; details: route intraperitoneal
[32] = test system: Rattus norvegicus; assay: Effect on behavioural activity in rat assessed as cocaine-induced lever response at 25 mg/kg, po pretreated with cocaine for 360 mins by drug-discrimination studies; type: functional
[33] = test system: Rattus norvegicus; assay: Effect on behavioural activity in rat assessed as cocaine-induced lever response at 25 mg/kg, po pretreated with cocaine for 45 mins by drug-discrimination studies; type: functional
[34] = test system: Rattus norvegicus; assay: Effect on behavioural activity in rat assessed as cocaine-induced lever response at 50 mg/kg, po pretreated with cocaine for 180 mins by drug-discrimination studies; type: functional
[35] = test system: Rattus norvegicus; assay: Effect on behavioural activity in rat assessed as cocaine-induced lever response at 2.5 mg/kg, ip pretreated with cocaine for 15 mins by drug-discrimination studies; type: functional; details: route intraperitoneal
[36] = test system: Rattus norvegicus; assay: Effect on behavioural activity in rat assessed as cocaine-induced lever response at 0.1 mg/kg, ip pretreated with cocaine for 15 mins by drug-discrimination studies; type: functional; details: route intraperitoneal
[37] = test system: Rattus norvegicus; assay: Effect on behavioural activity in rat assessed as cocaine-induced lever response at 0.5 mg/kg, po pretreated with cocaine for 180 mins by drug-discrimination studies; type: functional
[38] = test system: Rattus norvegicus; assay: Effect on behavioural activity in rat assessed as cocaine-induced lever response at 0.25 mg/kg, po pretreated with cocaine for 90 mins by drug-discrimination studies; type: functional
[39] = test system: Rattus norvegicus; assay: Effect on behavioural activity in rat assessed as cocaine-induced lever response at 0.5 mg/kg, ip pretreated with cocaine for 15 mins by drug-discrimination studies; type: functional; details: route intraperitoneal
[40] = test system: Rattus norvegicus; assay: Effect on behavioural activity in rat assessed as cocaine-induced lever response at 2.5 mg/kg, po pretreated with cocaine for 180 mins by drug-discrimination studies; type: functional
[41] = test system: Rattus norvegicus; assay: Effect on behavioural activity in rat assessed as cocaine-induced lever response at 0.5 mg/kg, po pretreated with cocaine for 45 mins by drug-discrimination studies; type: functional
[42] = test system: Rattus norvegicus; assay: Effect on behavioural activity in rat assessed as cocaine-induced lever response at 5 mg/kg, po pretreated with cocaine for 360 mins by drug-discrimination studies; type: functional
[43] = test system: Rattus norvegicus; assay: Effect on behavioural activity in rat assessed as cocaine-induced lever response at 2.5 mg/kg, po pretreated with cocaine for 45 mins by drug-discrimination studies; type: functional
[44] = test system: Rattus norvegicus; assay: Effect on behavioural activity in rat assessed as cocaine-induced lever response at 0.25 mg/kg, po pretreated with cocaine for 180 mins by drug-discrimination studies; type: functional
[45] = test system: Rattus norvegicus; assay: Effect on behavioural activity in rat assessed as cocaine-induced lever response at 0.25 mg/kg, po pretreated with cocaine for 360 mins by drug-discrimination studies; type: functional
[46] = test system: Rattus norvegicus; assay: Effect on behavioural activity in rat assessed as cocaine-induced lever response at 0.5 mg/kg, po pretreated with cocaine for 90 mins by drug-discrimination studies; type: functional
[47] = test system: Rattus norvegicus; assay: Effect on behavioural activity in rat assessed as cocaine-induced lever response at 0.25 mg/kg, po pretreated with cocaine for 45 mins by drug-discrimination studies; type: functional
[48] = test system: Rattus norvegicus; assay: Effect on behavioural activity in rat assessed as cocaine-induced lever response at 2.5 mg/kg, po pretreated with cocaine for 90 mins by drug-discrimination studies; type: functional
[49] = test system: Rattus norvegicus; assay: Effect on behavioural activity in rat assessed as cocaine-induced lever response at 0.5 mg/kg, po pretreated with cocaine for 360 mins by drug-discrimination studies; type: functional
[50] = test system: Rattus norvegicus; assay: Effect on behavioural activity in rat assessed as cocaine-induced lever response at 2.5 mg/kg, po pretreated with cocaine for 360 mins by drug-discrimination studies; type: functional
[51] = test system: Rattus norvegicus; assay: Effect on behavioural activity in rat assessed as cocaine-induced lever response at 0.25 mg/kg, ip pretreated with cocaine for 15 mins by drug-discrimination studies; type: functional; details: route intraperitoneal
[52] = target: T2, Sodium-dependent noradrenaline transporter; assay: Inhibition of [3H]norepinephrine reuptake at human NET expressed in HEK293 cells; type: cell-based
[53] = target: T1, Sodium-dependent serotonin transporter; assay: Inhibition of [3H]serotonin reuptake at human SERT expressed in HEK293 cells; type: cell-based
[54] = target: T3, Sodium-dependent dopamine transporter; assay: Inhibition of [3H]dopamine reuptake at human DAT expressed in HEK293 cells; type: cell-based

## CC(NC(C)(C)C)C(=O)c1ccc(Cl)cc1 (stereo not drawn)
[1]
  Activity: 32.7%
[2]
  Activity: 18.1%
[3]
  Activity: 0.1%
[4]
  Activity: 0%
[5]
  pKi: < 5.00
[6]
  pKi: < 5.00
[7]
  Activity: 0%
[8]
  Activity: 0%
[9]
  Activity: 0%
[10]
  Activity: 33.3%

## Cc1ccc(C(=O)C(C)NC(C)(C)C)cc1 (stereo not drawn)
[11]
  Time: 60 min
[12]
  ED50: 17.3 mg/kg
[2]
  Activity: 16.7%
[3]
  Activity: 0.6%
[13]
  pKi: < 5.00
[14]
  Activity: 26%
[15]
  Time to peak locomotor stimulation: 30 min
[5]
  pKi: < 5.00
[16]
  ED50: 3.8 mg/kg
[17]
  Activity: 66.7%
[10]
  Activity: 100%

## CC(NC(C)(C)C)C(=O)c1cccc(Cl)c1 (stereo not drawn) [BUPROPION]
[18]
  Activity: 0%
[19]
  Activity: 0%
[20]
  Activity: 0%
[11]
  Time: 130 min
[21]
  Activity: 17%
[22]
  Activity: 0%
[23]
  Activity: 50%
[24]
  Activity: 1%
[25]
  Activity: 2.5%
[26]
  Activity: 0%
[1]
  Activity: 67.1%
[27]
  Activity: 83%
[2]
  Activity: 66.3%
[28]
  Activity: 33%
[29]
  ED50: 22.8 mg/kg
[3]
  Activity: 0%
[30]
  Activity: 22%
[31]
  Activity: 24.1%
[32]
  Activity: 1%
[14]
  Activity: 87%
[15]
  Time to peak locomotor stimulation: 0 min
[16]
  ED50: 5.5 mg/kg
[33]
  Activity: 50%
[17]
  Activity: 66.7%
[34]
  Activity: 17%
[35]
  Activity: 0.7%

## CC(NC1CC1)C(=O)c1cccc(Cl)c1 (stereo not drawn)
[36]
  Activity: 9%
[37]
  Activity: 0%
[19]
  Activity: 0%
[20]
  Activity: 83%
[38]
  Activity: 0%
[39]
  Activity: 63%
[11]
  Time: 350 min
[21]
  Activity: 74%
[22]
  Activity: 33%
[40]
  Activity: 34%
[41]
  Activity: 1%
[24]
  Activity: 33%
[25]
  Activity: 0%
[42]
  Activity: 0%
[26]
  Activity: 0%
[43]
  Activity: 34%
[1]
  Activity: 66.7%
[2]
  Activity: 66.3%
[44]
  Activity: 0%
[28]
  Activity: 34%
[45]
  Activity: 34%
[46]
  Activity: 16%
[29]
  ED50: 12.8 mg/kg
[3]
  Activity: 67.2%
[30]
  Activity: 99%
[47]
  Activity: 0%
[31]
  Activity: 21.5%
[4]
  Activity: 0%
[32]
  Activity: 0%
[48]
  Activity: 0%
[49]
  Activity: 2%
[14]
  Activity: 82%
[50]
  Activity: 0%
[15]
  Time to peak locomotor stimulation: 0 min
[16]
  ED50: 16.6 mg/kg
[7]
  Activity: 0%
[8]
  Activity: 0%
[33]
  Activity: 67%
[9]
  Activity: 0%
[35]
  Activity: 39.5%
[51]
  Activity: 24%

## CC(C)CC(NC(C)(C)C)C(=O)c1cccc(Cl)c1 (stereo not drawn)
[52]
  pIC50: 6.44
[11]
  Time: 60 min
[53]
  pIC50: < 5.00
[13]
  pKi: 6.85
[54]
  pIC50: 6.36
[14]
  Activity: 89%
[15]
  Time to peak locomotor stimulation: 260 min
[5]
  pKi: 5.21
[16]
  ED50: 25.7 mg/kg
[6]
  pKi: 5.64

## CC(C)NC(C)C(=O)c1cccc(Cl)c1 (stereo not drawn)
[39]
  Activity: 0.3%
[11]
  Time: 50 min
[12]
  ED50: 8.8 mg/kg
[1]
  Activity: 53.3%
[2]
  Activity: 78.6%
[3]
  Activity: 43.8%
[31]
  Activity: 21.2%
[14]
  Activity: 46%
[15]
  Time to peak locomotor stimulation: 20 min
[5]
  pKi: < 5.00
[16]
  ED50: 6.2 mg/kg
[6]
  pKi: < 5.00
[17]
  Activity: 73.5%
[10]
  Activity: 94.9%
[35]
  Activity: 27%
